For 21 molecules, IC50 results are on record in patent publication US20240174662A1, “SMALL MOLECULE INHIBITORS OF SALT INDUCIBLE KINASES” (Janssen Biotech, Inc., priority 2021, published 2024).

For this experiment, the target named is SIK2 (Homo sapiens (Human), UniProt Q9H0K1). Description: SIK2 Enzymatic Assay Version 2 (High ATP). The settings on record: 3 mM ATP and 200 μM HDAC5tide final, ADP-Glo Max luminescence. It counts as biochemical. In a few lines: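 Luminescent ADP-Glo Max read-out: depletion reagent 2 h, then detection reagent 1 h. Before the reaction, compounds were incubated 30 min with enzyme added at 6 nM (twice final concentration), with all steps at room temperature.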
Sequence of SIK2 (Q9H0K1 whole entry, species assumed): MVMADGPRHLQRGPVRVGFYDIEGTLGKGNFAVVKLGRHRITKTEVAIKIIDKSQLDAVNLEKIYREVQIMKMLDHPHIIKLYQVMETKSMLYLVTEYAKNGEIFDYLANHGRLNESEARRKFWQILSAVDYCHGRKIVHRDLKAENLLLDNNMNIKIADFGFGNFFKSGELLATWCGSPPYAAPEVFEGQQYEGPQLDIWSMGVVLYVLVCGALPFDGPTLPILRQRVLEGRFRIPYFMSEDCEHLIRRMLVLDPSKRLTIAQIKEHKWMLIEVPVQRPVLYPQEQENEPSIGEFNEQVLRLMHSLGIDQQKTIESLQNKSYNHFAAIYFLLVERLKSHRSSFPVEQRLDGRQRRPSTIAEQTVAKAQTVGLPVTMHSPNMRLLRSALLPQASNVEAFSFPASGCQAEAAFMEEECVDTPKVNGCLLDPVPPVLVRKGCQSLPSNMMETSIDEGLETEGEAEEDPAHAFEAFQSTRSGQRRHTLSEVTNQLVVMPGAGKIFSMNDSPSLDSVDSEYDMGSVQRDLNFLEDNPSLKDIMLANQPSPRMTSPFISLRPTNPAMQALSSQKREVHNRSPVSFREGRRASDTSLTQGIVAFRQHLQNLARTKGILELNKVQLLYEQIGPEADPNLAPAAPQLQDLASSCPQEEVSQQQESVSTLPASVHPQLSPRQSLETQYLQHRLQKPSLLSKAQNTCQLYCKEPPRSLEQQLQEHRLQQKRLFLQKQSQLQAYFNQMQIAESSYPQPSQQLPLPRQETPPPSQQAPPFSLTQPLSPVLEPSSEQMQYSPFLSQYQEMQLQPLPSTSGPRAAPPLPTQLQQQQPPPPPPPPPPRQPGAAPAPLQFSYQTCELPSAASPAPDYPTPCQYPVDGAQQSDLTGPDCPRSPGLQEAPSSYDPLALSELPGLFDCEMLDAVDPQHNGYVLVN

`Cn1ncc(OC[C@@H](N)c2ccccc2)c1-c1ccn2nc(NC(=O)C3CC3)cc2c1` [Example 235, N-[5-[4-[(2S)-2-amino-2-phenyl-ethoxy]-2-methyl-pyrazol-3-yl]pyrazolo[1,5-a]pyridin-2-yl]cyclopropanecarboxamide] had an IC50 of under 0.000847 µM. In the case of `COc1cc(Nc2cc3cc(-c4c(OC[C@H]5CCN5C)cnn4C)ccn3n2)cc(OC)c1C(=O)NC(C)C` [Example 37, N-isopropyl-2,6-dimethoxy-4-[[5-[2-methyl-4-[[(2R)-1-methylazetidin-2-yl]methoxy]pyrazol-3-yl]pyrazolo[1,5-a]pyridin-2-yl]amino]benzamide] it was 0.0429 µM. The molecule `Cn1ncc(OC[C@@H]2CNCCO2)c1-c1ccn2nc(NC(=O)C3CC3)cc2c1` [Example 230, N-[5-[2-methyl-4-[[(2S)-morpholin-2-yl]methoxy]pyrazol-3-yl]pyrazolo[1,5-a]pyridin-2-yl]cyclopropanecarboxamide] gave an IC50 of 0.0418 µM. In the case of `COCCNC(=O)c1ccc(Nc2cc3cc(-c4c(OC[C@H]5CCN5C)cnn4C)ccn3n2)nc1` [Example 107, N-(2-methoxyethyl)-6-[[5-[2-methyl-4-[[(2R)-1-methylazetidin-2-yl]methoxy]pyrazol-3-yl]pyrazolo[1,5-a]pyridin-2-yl]amino]pyridine-3-carboxamide] it was 0.0033 µM; in that of `Cc1cncc(Nc2cc3cc(-c4c(CO[C@@H]5CN(C)C[C@@H]5C)cnn4C)ccn3n2)n1` (stereo in doubt) [Example 379, CIS—*S, *S-5-[4-[(1,4-dimethylpyrrolidin-3-yl)oxymethyl]-2-methyl-pyrazol-3-yl]-N-(6-methylpyrazin-2-yl)pyrazolo[1,5-a]pyridin-2-amine], 0.0022 µM. Next, `CCn1ncc(OC[C@@H]2CCN(C)C2)c1-c1ccn2nc(NC(=O)C3CC3)cc2c1` [Example 398, N-[5-[2-ethyl-4-[[(3R)-1-methylpyrrolidin-3-yl]methoxy]pyrazol-3-yl]pyrazolo[1,5-a]pyridin-2-yl]cyclopropanecarboxamide]: 0.0978 µM.

With `CCN1CCC[C@@H]1COc1cnn(C)c1-c1ccn2nc(Nc3cc(C)nc(C)n3)cc2c1` [Example 289, N-(2,6-dimethylpyrimidin-4-yl)-5-[4-[[(2R)-1-ethylpyrrolidin-2-yl]methoxy]-2-methyl-pyrazol-3-yl]pyrazolo[1,5-a]pyridin-2-amine], the IC50 was 0.0014 µM. `Cc1onc(O[C@H]2CNC[C@H]2F)c1-c1ccn2nc(NC(=O)C3CC3)cc2c1` [Example 80, N-[5-[3-[(3S,4R)-4-fluoropyrrolidin-3-yl]oxy-5-methyl-isoxazol-4-yl]pyrazolo[1,5-a]pyridin-2-yl]cyclopropanecarboxamide] came in with an IC50 of 0.146 µM. This IC50 is about 100-fold higher than that of the molecule before. Next, `Cc1onc(OC[C@@H](N)c2ccccc2F)c1-c1ccn2nc(NC(=O)C3CC3)cc2c1` [Example 220, N-[5-[3-[(2S)-2-amino-2-(2-fluorophenyl)ethoxy]-5-methyl-isoxazol-4-yl]pyrazolo[1,5-a]pyridin-2-yl]cyclopropanecarboxamide]: 0.0049 µM; `CN1CC[C@@H]1COc1cnn(C)c1-c1ccn2nc(Nc3ccc4cnccc4n3)cc2c1` [Example 125, N-[5-[2-methyl-4-[[(2R)-1-methylazetidin-2-yl]methoxy]pyrazol-3-yl]pyrazolo[1,5-a]pyridin-2-yl]-1,6-naphthyridin-2-amine]: 0.0013 µM. In the case of `Cc1cc(Nc2cc3cc(-c4c(OC[C@H]5CCN5)cnn4C)ccn3n2)nnc1C` [Example 275, 5-[4-[[(2R)-azetidin-2-yl]methoxy]-2-methyl-pyrazol-3-yl]-N-(5,6-dimethylpyridazin-3-yl)pyrazolo[1,5-a]pyridin-2-amine] it was 0.0322 µM; in that of `CNC(=O)c1ccc(Nc2cc3cc(-c4c(OC[C@H]5CCN5C)cnn4C)ccn3n2)nc1` [Example 126, N-methyl-6-[[5-[2-methyl-4-[[(2R)-1-methylazetidin-2-yl]methoxy]pyrazol-3-yl]pyrazolo[1,5-a]pyridin-2-yl]amino]pyridine-3-carboxamide], 0.0041 µM; in that of `CN1CC[C@@H]1COc1cnn(C)c1-c1ccn2nc(NC(=O)[C@@H]3C[C@H]3c3ccccc3)cc2c1` (single isomer, unassigned) [Example 157, (1*R,2*R)—N-[5-[2-methyl-4-[((R)1-methylazetidin-2-yl)methoxy]pyrazol-3-yl]pyrazolo[1,5-a]pyridin-2-yl]-2-phenyl-cyclopropanecarboxamide], 0.0111 µM.

Molecule `Cc1cc(Nc2cc3cc(-c4c(OC[C@H]5CCN5)cnn4C(F)F)ccn3n2)nc(C)n1` [Example 260, 5-[4-[[(2R)-azetidin-2-yl]methoxy]-2-(difluoromethyl)pyrazol-3-yl]-N-(2,6-dimethylpyrimidin-4-yl)pyrazolo[1,5-a]pyridin-2-amine] returned an IC50 of 0.0376 µM. Next, `Cc1onc(O[C@@H]2CN[C@@H]3CCCO[C@@H]32)c1-c1ccn2nc(NC(=O)C3CC3)cc2c1` [Example 227, (3R, 3aS, 7aR)—N-[5-[3-(1,2,3,3a,5,6,7,7a-octahydropyrano[3,2-b]pyrrol-3-yloxy)-5-methyl-isoxazol-4-yl]pyrazolo[1,5-a]pyridin-2-yl]cyclopropanecarboxamide]: 0.0349 µM. In the case of `Cc1ncc(Nc2cc3cc(-c4c(OC[C@H]5CCN5C)cnn4C)ccn3n2)nc1C` [Example 23, N-(5,6-Dimethylpyrazin-2-yl)-5-[2-methyl-4-[[(2R)-1-methylazetidin-2-yl]methoxy]pyrazol-3-yl]pyrazolo[1,5-a]pyridin-2-amine] it was 0.0012 µM. In the case of `C[C@H]1CN(C)[C@H]1COc1cnn(C)c1-c1ccn2nc(NC(=O)C3CC3)cc2c1` [Example 437, N-[5-[4-[[(2R,3S)-1,3-dimethylazetidin-2-yl]methoxy]-2-methyl-pyrazol-3-yl]pyrazolo[1,5-a]pyridin-2-yl]cyclopropanecarboxamide] it was 0.0856 µM; in that of `Cc1cc(Nc2cc3cc(-c4c(OC[C@@H]5CC6(CCCC6)CO5)cnn4C)ccn3n2)nc(C)n1` (single isomer, unassigned) [Example 443, (*S)—N-(2,6-dimethylpyrimidin-4-yl)-5-[2-methyl-4-(8-oxaspiro[4.4]nonan-7-ylmethoxy)pyrazol-3-yl]pyrazolo[1,5-a]pyridin-2-amine], 0.0743 µM. `CN1CC(Oc2cnn(C)c2-c2ccn3nc(NC(=O)C4CC4)cc3c2)C1` [Example 399, N-[5-[2-methyl-4-(1-methylazetidin-3-yl)oxy-pyrazol-3-yl]pyrazolo[1,5-a]pyridin-2-yl]cyclopropanecarboxamide] came in with an IC50 of 0.174 µM. Against the preceding molecule, the IC50 is about 2.3-fold higher. Next, `CCN1CC[C@@H]1COc1cnn(C(F)F)c1-c1ccn2nc(Nc3cc(C)nc(C)n3)cc2c1` [Example 479, 5-[2-(difluoromethyl)-4-[[(2R)-1-ethylazetidin-2-yl]methoxy]pyrazol-3-yl]-N-(2,6-dimethylpyrimidin-4-yl)pyrazolo[1,5-a]pyridin-2-amine]: 0.0011 µM; `Cc1cc(Nc2cn3cc(-c4c(OC[C@H]5CCN5C)cnn4C)ccc3n2)nc(C)n1` [Example 485, N-(2,6-dimethylpyrimidin-4-yl)-6-[2-methyl-4-[[(2R)-1-methylazetidin-2-yl]methoxy]pyrazol-3-yl]imidazo[1,2-a]pyridin-2-amine]: 0.0011 µM.
